Columns and labels:
hESCs [1] = test: ALP positive colony formation / low-density survival assay of dissociated hESCs on Matrigel; format: cell-based, human; details: for Activity (% ALP positive colony formation by hESCs): Ratio of ALP positive colonies vs. total initially seeded cells
Method: Human ESC lines H1, HUES7 and HUES9 were cultured on irradiated MEF feeder cells in DMEM-F12 supplemented with 2 mM L-glutamine, lx nonessential amino acids, 20% serum replacement (Invitrogen) and 10 ng/ml basic Fibroblast growth factor (Invitrogen). Chemically-defined and feeder-free hESC culture was described previously (Yao, S. et al., Proc Natl Acad Sci USA 103 (18):6907-6912 (2006)). Briefly, hESCs were grown on Matrigel-coated tissue culture plates in N2B27-CDM (DMEM-F12 supplemented with 1×N2 supplements, lx B27 supplements, 2 mM L-glutamine, 0.11 mM 2-mercaptoethanol, lx nonessential amino acids, and 0.5 mg/ml BSA (fraction V)) and 20 ng/ml bFGF. Human ESCs were passaged every 5-6 days with 0.05% trypsin.
For clonal survival assays, single hESCs were diluted to clonal density and plated onto 96-well Matrigel-coated plate. For low-density survival assays, 500 cells were plated onto 96-well Matrigel-coated plate. To visualize hESC colonies, cultures were fixed in 4% paraformaldehyde in PBS for 5 min, washed once in PBS, then stained for alkaline phosphatase activity as described in manufacturer's instructions. ALP positive colonies were counted on an inverted microscope.
ALP detection kit and integrin antibodies were from Chemicon. AG825 (Erb2 inhibitor), AG1478 (EGFR inhibitor), PPP (IGFR1 inhibitor) were purchased from Calbiochem. Antibodies raised against the intracytoplasmic tail of E-cadherins (Transduction Laboratories, Lexington, Ky.) were used for immunoprecipitation. The antibody TS2/16 was from Pierce. Antibodies to the extracellular domain of E-cadherin molecule were from Zymed (Carlsbad). Antibodies against extracellular signal-regulated kinase/MAPK, EGFR1, ERB2, GADPH and phosphorylated form of AKT were from Cell Signaling. Mouse monoclonal anti-phosphotyrosine (4G-10 clone) was from Upstate Biotechnology. Ptn and Tzv were added to culture medium at 2 μM. […]

hESCs [2] = test: Cell adhesion assay; format: cell-based, human
Method: Cell adhesion assays were performed in 96-well microtiter plates coated with Matrigel. After trypsin, hESCs were resuspended in the chemically-defined media containing the desired compounds. Cells were then added to the microtiter wells and incubated for 3 h at 37° C. Unbound and loosely bound cells were removed by shaking and washing, and the remaining cells were then fixed immediately. The wells were washed 3 times with 200 μl of H2O, and attached cells were stained with Crystal Violet (Sigma). The absorbance of each well at 570 nm was then measured. For experiments with blocking antibodies, cells were pre-incubated with antibodies on ice for 30 min, and adhesion assays were performed in the presence of antibodies. Each sample was assayed independently for three times.

hESCs [3] = test: Karyotyping (G-banding) of long-term expanded hESCs; format: cell-based, human; details: more than 20 generations; chemically-defined medium
Method: Teratoma formation experiments were performed by injecting 3-5 million hESCs (maintained in the presence of compounds Tvz or Ptn) under the kidney capsule of nude mice. After 4-5 weeks, all mice developed teratomas, which were removed and then immunohistologically analyzed by The Scripps Research Institute Research Histology Service and Animal Resources. Compounds treated cells were karyotyped by standard G-banding at the Children's Hospital Oakland, Cytogenetics Laboratory. No chromosomal abnormality was found in the 10 randomly picked nuclei.

hESCs [4] = test: Cell death analysis of dissociated hESCs in suspension culture; format: cell-based, human
Excerpt: hESCs are known to be difficult in forming embryoid bodies (EBs) in suspension culture after single cell dissociation due to extensive cell death. Thus, we also tested whether Tzv or Ptn could promote survival of dissociated hESCs in suspension. […] Because cell aggregation is most often mediated through cell-cell adhesions and E-cadherin is the primary cell-cell adhesion molecule, as well as highly expressed in hESCs (Eastham, A. M. et al., Cancer Res 67 (23): 11254-11262 (2007)), we tested the effect of a specific E-cadherin blocking antibody on multicellular aggregate formation.
The hESCs under different treatments were dissociated by trypsin and fixed by 4% paraformaldehyde. And the staining was carried out according to the manufacturer's instructions (MBL Laboratories, Watertown, Mass.). After staining, samples were analysed by flow cytometry using a FACS Calibur flow cytometer (BD).

[5] = system: epithelial to mesenchymal transition/EMT; test: Induction of MET / inhibition of EMT; format: cell-based
[6] = system: growth factor receptors, AKT and ERK; test: Western blot of phosphorylation status in hESCs; format: cell-based, human
Excerpt: Interplay between physical/structural environment and growth factor plays a very important role in cell fate regulation (Comoglio, P. M., Boccaccio, C., & Trusolino, L., Curr Opin Cell Biol 15 (5):565-571 (2003)). To examine whether growth factors are involved in integrin-mediated hESC survival, we treated dissociated hESCs with Tzv or Ptn together with individual highly specific growth factor receptor inhibitors. […] Similarly inhibition of FGFR, IGFR, EGFR1 or Erb2 also greatly abolished Tzv-induced hESC survival in suspension culture.
Phosphatidylinositol-3-kinase (PI-3K) signaling and MAPK/ERK are major regulators for hESC self-renewal (Armstrong, L. et al., Hum Mol Genet 15 (11): 1894-1913 (2006); Paling, N. R. et al., J Biol Chem 279 (46):48063-48070 (2004); Pyle, A. D., Lock, L. F., & Donovan, P. J., Nat Biotechnol 24 (3):344-350 (2006); Li, J. et al., Differentiation 75 (4):299-307 (2007)). Phosphorylation of ERK and AKT, a downstream effector of PI-3K, were increased upon treatment of dissociated hESCs with Ptn, and this increase was abolished by integrin blocking antibody (FIG. 4e,f). Moreover, activation of AKT and ERK by Ptn was blocked by inhibitors of FGFR, IGFR, EGFR or Erb2 (FIG. 4g and data not shown).

stem cells = test: Survival and anti-differentiation of stem cells ex vivo; format: cell-based; details: human and mouse embryonic, neural, skin, mesenchymal, hematopoietic, stromal and epithelial stem cells; contact immediately after isolation
Excerpt: In some embodiments, the invention provides methods of promoting survival and anti-differentiation in stem cells ex-vivo.

β1 integrin = test: Activated β1 integrin (HUTS-21 binding; flow cytometry, immunostaining); format: cell-based, human; details: PMA 10 nM; immunostaining of active β1 integrins
Excerpt: To gain insights into the mechanism of β1 integrin regulation by Tzv and Ptn, we investigated whether the compounds' effect is due to changes of integrin expression. In contrast to E-cadherin, β1 integrin was not cleaved by trypsin. […] Thus, Tzv and Ptn are likely to affect cell adhesion by modulating integrin activity (FIG. 3 d,e). To examine the effects of compound treatment on the activity of β1 integrin, we used the monoclonal antibody HUTS-21, which specifically binds to the activated form of the 131 integrin (Luque, A. et al., J Biol Chem 271 (19):11067-11075 (1996)).
To assess the expression of E-cadherin, activated integrin and SSEA4, dissociated cells (3×10^5) were washed with PBS and resuspended in PBS containing 2% goat serum. Cells were then incubated with the appropriate antibody for 1 h at 4° C., washed with the blocking solution, and labeled with FITC-conjugated secondary antibody for 30 min at 4° C. Cells were then washed and analyzed on a FACS Calibur flow cytometer.

Row | Structure (SMILES) | Activity (% ALP positive colony formation by hESCs) (hESCs [1]) [%] | also measured
1 | CC(C)CCNS(=O)(=O)c1ccc(Nc2nccc(N3CCCc4cc(O)ccc43)n2)cc1 | 23.5 | 
2 | CNS(=O)(=O)c1ccc(Nc2nccc(N3CCCc4ccccc43)n2)cc1 | 3 | 
3 | O=S(=O)(NCC1CC1)c1ccc(Nc2nccc(Nc3ccccc3)n2)cc1 | 3.3 | 
4 | CC(C)CCNS(=O)(=O)c1ccc(Nc2nccc(N3CCc4ccccc4C3)n2)cc1 | 3.2 | 
5 | O=C(NCc1ccccc1)c1csc(Nc2ccncn2)n1 [drawing 17] | 24.1 | 
6 | O=S(=O)(NCC1CC1)c1ccc(Nc2nccc(N3CCCc4cc(O)ccc43)n2)cc1 [Ptn, N-(cyclopropylmethyl)-4-(4-(6-hydroxy-3,4-dihydroquinolin-1(2H)-yl)pyrimidin-2-ylamino)benzenesulfonamide] |  | adhesion of dissociated hESCs to Matrigel or laminin (hESCs [2]): dramatically increased adhesion; adhesion of hESCs to gelatin or poly-lysine (hESCs [2]): not affected; karyotype of hESCs serially passaged in compound-containing medium (hESCs [3]): normal karyotype; survival of dissociated hESCs in suspension culture (hESCs [4]): had no effect; MET induction and EMT inhibition [5]: can induce MET (the reverse of EMT) and inhibit EMT; phosphorylation of ERK and AKT ([6]; dissociated hESCs): increased; phosphorylation of growth factor receptor ([6]; hESCs treated for 2 h, DMSO control): significantly increased the phosphorylation; survival of dissociated hESCs in adherent culture (hESCs [1]; adherent culture (e.g. Matrigel-coated plate)): promoted survival; survival and anti-differentiation of stem cells (stem cells): effective in promoting survival and anti-differentiation
7 | CNS(=O)(=O)c1ccc(Nc2nccc(N3CCCc4cc(O)ccc43)n2)cc1 | 5.7 | 
8 | CC(C)CCNS(=O)(=O)c1ccc(Nc2nccc(N3CCc4ccccc43)n2)cc1 | 3.1 | 
9 | O=S(=O)(NCC1CC1)c1ccc(Nc2nccc(N3Cc4ccccc4C3)n2)cc1 | 3.5 | 
10 | O=S(=O)(NCC1CC1)c1ccc(Nc2nccc(N3CCCc4ccccc43)n2)cc1 | 5.2 | 
11 | CC(C)CCNS(=O)(=O)c1ccc(Nc2nccc(N3CCCc4ccccc43)n2)cc1 | 3.4 | 
12 | CCCCCCCCCCCCCC(=O)O[C@@H]1[C@@H](C)[C@@]2(O)[C@@H](C=C(CO)C[C@]3(O)C(=O)C(C)=C[C@@H]23)[C@@H]2C(C)(C)[C@]12OC(C)=O [PMA, phorbol 12-myristate 13-acetate, reference compound] |  | cell adhesion and colony formation of dissociated hESCs (hESCs [2]): substantial increase in cell adhesion and colony formation; integrin activation (β1 integrin): caused integrin activation
13 | CC(C)CCNS(=O)(=O)c1cccc(Nc2nccc(N3CCCc4cc(O)ccc43)n2)c1 | 3.1 | 
14 | O=C(NCc1ccccc1)c1csc(Nc2ccccc2)n1 | 4.5 | 
15 | O=S(=O)(NC1CC1)c1ccc(Nc2nccc(N3CCCc4cc(O)ccc43)n2)cc1 | 8 | 
16 | COc1ccc2c(c1)CCCN2c1ccnc(Nc2ccc(S(=O)(=O)NCCC(C)C)cc2)n1 | 3.3 | 
17 | O=C(NCC1CC1)c1ccc(Nc2nccc(N3CCCc4cc(O)ccc43)n2)cc1 | 2.9 | 
18 | O=S(=O)(NC1CC1)c1ccc(Nc2nccc(N3CCCc4ccccc43)n2)cc1 | 3.1 | 
19 | CNS(=O)(=O)c1ccc(Nc2nccc(N3CCCc4cc(OC)ccc43)n2)cc1 | 3.1 | 
20 | CN(C)CCCn1cc(C2=C(c3c[nH]c4ccccc34)C(=O)NC2=O)c2ccccc21 [bisindolylmaleimide I, reference compound] |  | effect on increased cell adhesion induced by Ptn (hESCs [2]; PKC inhibitor in combination with Ptn): could antagonize the increased cell adhesion; effect on cell adhesion induced by Tzv (hESCs [2]; PKC inhibitor in combination with Tzv): had no effect
21 | O=S(=O)(NCC1CC1)c1ccc(Nc2nccc(N3CCc4ccccc43)n2)cc1 | 6.1 | 
22 | CNS(=O)(=O)c1ccc(Nc2nccc(N3CCc4ccccc4C3)n2)cc1 | 3.6 | 
23 | O=C(NCc1ccccc1)c1csc(Nc2ccncc2)n1 | 20.3 | 
24 | O=C(NCc1ccccc1)c1csc(Nc2ccccn2)n1 | 5.2 | 
25 | COc1ccc(CNC(=O)c2csc(Nc3ccncn3)n2)cc1 | 5 | 
26 | O=S(=O)(NC1CC1)c1ccc(Nc2nccc(N3CCc4ccccc43)n2)cc1 | 6.2 | 
27 | O=S(=O)(NCC1CC1)c1ccc(Nc2nccc(N3CCCc4cc(O)ccc43)n2)cc1 [drawing 23] | 23.2 | 
